Data set [1] can be described thus: Ketogenic effect after oral administration: β-hydroxybutyrate concentrations in rat plasma. In kind it is in vivo, rat (male Sprague-Dawley). Conditions: 300 mg/kg po; for Maximum increase of plasma concentration of β-hydroxybutyrate: versus vehicle baseline. As for the experimental part: Male Sprague-Dawley rats (weight range 200-250 g) were obtained from Charles River, Margate, Kent. The rats were group housed in polypropylene cages at a temperature of 21 ±4° C. and 55 ±20% humidity and on a standard light/dark cycle. Animals had free access to a standard pelleted rat diet and tap water at all times. Animals were accustomed to these conditions for at least one week before experimentation.
Animals were killed by CO2 and blood (approx, 5 ml) was collected by cardiac puncture at various times after dosing. Blood was collected into EDTA-coated plasma collection tubes (Sarstedt 5 ml K2E tubes) and kept on ice prior to centrifugation. Tubes were centrifuged in an Eppendorf 570R centrifuge at 4° C. for 5 minutes at 2500 rpm (1000 g). Following plasma separation, extreme care was taken to avoid contamination with red blood cells and samples were re-centrifuged as necessary. Plasma samples were initially frozen on dry ice and transferred to a −75° C. freezer until required for analysis.
Sodium DL-β-hydroxybutyrate (H-6501 Lot 111K2618) was obtained from Sigma. A stock solution of β-bydroxybutyrate (40 mM DL racemate equivalent to 20 mM D-isomer) was prepared in 0.9% saline solution, kept at 4° C. and used to generate appropriate dilutions for an assay standard curve.
Commercial clinical assay kits for the determination of D-β-hydroxybutyrate were obtained from Random Laboratories (Antrim, UK). Kits were obtained in two pack sizes (Ranbut RB1007: 10×10 ml and RB1008: 10×50 ml) but were otherwise identical. Each kit contained a standard solution of 1 mM D-β-hydroxybutyrate that was assayed every time to confirm the assay was performing correctly. The kit relies on measuring the appearance of NADH via the activity of β-hydroxybutyrate dehydrogenase measured as an increase of OD340 nm. An alkaline pH is necessary to drive the reaction equilibrium towards the production of NADH and acetoacetate.
The protocol supplied with the Ranbut kits was for a discrete (cuvette-based) spectrophotometric assay, so the protocol was modified for suitability with a 96-well microplate format using blank, flat-bottomed microplates (Greiner PS 655101 Lot 98 35 01). Assays were performed in triplicate using a sample volume of10 μl to each well for the standards and usually 20 μl for plasma samples (though this was varied for some experiments). Standard dilutions and samples were pipetted a single plate at a time and preincubated at 37° C. for 15 minutes in the sample compartment of a Molecular Devices VERSAMAX tunable microplate reader. The appropriate volume of assey reagent was reconstituted, according to instructions, using distilled water and preincubated at 37° C. for 15 minutes using a static water bath. The assay plate was ejected and the reaction started by adding rapidly 250 μl of reagent to each well (avoiding air bubbles). The plate was reloaded, mixed and then the change in OD340 nm followed in kinetic mode with a reading at every 15 seconds for a total of 2 minutes. The reaction rate was then determined from the OD increase over a suitable 1 minute period, after allowing a necessary period for the reaction rate to settle. The rate between 45 seconds and 105 seconds was used as the default measuring period, though occasionally a different period was used as necessary (e.g. if an aberrant reading was obtained at one of these time-points).
For analysis of spectrophotometric rate assays, linear regression analysis to the standard curve was used followed by interpolation of unknown values (GraphPad Prism 3.0) For comparison of treatment groups with vehicle, multiple 2-tailed T-tests were used and p<0.05 was taken to indicate statistical significance.

The procedure of data set [2]:
Control animals received the appropriate vehicle (deionized water at 1 ml/kg) via the same route.

The structures appear in SMILES notation.

For `C[C@@H](O)CC(=O)[O-].[Na+]` [KTX 0101, sodium (R)-3-hydroxybutyrate], in data set [1], the “Time at which the maximum increase of plasma β-hydroxybutyrate was observed” value worked out at 15 min, the “Time by which plasma β-hydroxybutyrate returned to control values” was ≤ 2 h, the “Time until which plasma β-hydroxybutyrate plateaued at the maximum level” value came out at 30 min and the “Maximum increase of plasma concentration of β-hydroxybutyrate” value came out at 0.4 mM. The “Level of plasma β-hydroxybutyrate at 1 h” value in data set [1] (1 h after dosing) is “still significantly (P<0.05) elevated”.
As to `CC(=O)CCOC(=O)C[C@@H](C)OC(=O)C[C@@H](C)OC(=O)C[C@@H](C)O` [KTX 0204, 2-keto-butan-4-ol ester of (R)-3-hydroxybutyrate triolide], in data set [2] (deionized water, dosing solution for gavage), the “Solubility in deionized water and nature of the solution” value is “mostly soluble in deionized water and produced a cloudy and stable solution”. Also, in data set [2] (isolated product (syrup)), the Solubility in water entry is “water-soluble”. In data set [1], the “Time at which the maximum increase of plasma β-hydroxybutyrate was observed” value was 30 min, the “Time by which plasma β-hydroxybutyrate returned to control values” is recorded as ≤ 1 h and the “Maximum increase of plasma concentration of β-hydroxybutyrate” value stood at 0.25 mM.

The values are drawn from US7485743B2, “Oligomeric ketone compounds” (BTG International Limited, priority 2004, dated 2009).
